For data set [1] the following is noted: cited from earlier work.
Data set [2] deals with C. difficile strain ATCC 43255. Briefly: Mouse model of recurrent CDI, second study: fecal cell, spore and toxin evaluation. Format: in vivo, mice. The procedure: C. difficile Mouse Model. […] A negative vehicle control will be included. […] This study was conducted in duplicates.
A second study was conducted with oxadiazole 2 given po at 20 or 40 mg/kg for 5 days and vancomycin administered at 50 mg/kg po for 5 days. Fecal samples were collected on days 3, 7, and 10 for C. difficile spore and toxin evaluation.

The test system of a further data set is C. difficile ATCC43255. The data set can be described thus: Inhibition of vegetative cells, spores and toxins in exponential phase cells.
The nature of data set [3]: Toxicity and fecal concentration after multiple oral doses.
For data set [4] the following is noted: mouse, in vivo, po, 20 mg/kg, 24 h.
The nature of data set [5]: Pharmacokinetics after single po and iv administration.
Data set [6] has as its system C. difficile strain ATCC 43255. The data set can be described thus: Mouse model of recurrent CDI, survival. As to conditions: po once a day for 5 days; oxadiazole 2 20 mg/kg/day, vancomycin 50 mg/kg/day.
In data set [7] the test system is DNA, protein and peptidoglycan synthesis in C. difficile ATCC 43255. The data set can be described thus: Macromolecular synthesis assays. Format: cell-based. The text has this: Macromolecular synthesis assays. The method of Mathur et al (J Antimicrob Chemother 2011, 66(5), 1087) was used with a few modifications. [2,8-^3H]-adenine (40 Ci/mmol), 1-[3,4,5-^3H(N)]-leucine (120 Ci/mmol), and N-acetyl-d-[6-^3H]-glucosamine (30 Ci/mmol) were purchased from Perkin Elmer (Waltham, MA). Ciproflaxin, linezolid, and oxacillin, were used as positive controls for DNA, protein, and peptidoglycan, respectively. Ciprofloxacin and oxacillin were purchased from Sigma-Aldrich (St. Louis, MO), linezolid was obtained from AmplaChem Inc. (Carmel, IN). […] Aliquots were taken every 30 min for radioactive counting and viability. Optimal incubation times were 60 min for DNA, 180 min for protein, and 120 min for peptidoglycan.

The next data set relates to C. difficile. The data set can be described thus: MIC against C. difficile (strain not named; 14 strains overall). Format: cell-based, Clostridium difficile. The following applies: 14 C. difficile strains.
A further data set concerns C. difficile infection. As to conditions: cited from earlier work.
[8] abbreviates: summary statement, species not given.
Where [9] appears, read: 40 mg/kg/day po for 5 days, uninfected mice.
Where [10] appears, read: female, C57B1/6, mouse, feces, po, 40 mg/kg/day.

Where two headings read alike, the source gives them in different places. Where only a bound is given, the exact number is not on record here.

Consider `FC(F)(F)c1ccc(Oc2ccc(-c3noc(-c4ccc5[nH]ccc5c4)n3)cc2)cc1` [Compound 1], for which the clearance result in data set [1] (in words) is “low clearance”. Further, in data set [1] (setting [8]), the Oral bioavailability was 97% and the Terminal half-life was 18.6 h.
`Oc1ccc(-c2nc(-c3ccc(OC4CCCC4)cc3)no2)cc1` [Compound 2]: the “Decrease in spores in feces” value in data set [2] (20 mg/kg group) came to 3 log. Besides, in data set [2] (20 mg/kg/day for 5 days), the “Total cell counts in feces, lower on day 10 compared to day 3” value turned out to be 3.44 log. Further, the Spores in feces entry in data set [2] (40 mg/kg group, days 3, 7 and 10, in words) is given as “no spores were observed at any time”. The “Toxin production in feces” value in data set [2] (40 mg/kg group, in words) was “no toxin production was detected”. For the same compound, the “Total cell counts in feces, lower on day 10 compared to day 3” value in data set [2] (40 mg/kg/day for 5 days) was determined as 4.68 log. In [2] (b100, 20 mg/kg), the “Reduction in spores in feces” value stood at 1.85 log. Further, in [2] (dose of compound 2 not stated), the “Reduction in vegetative cells in feces by day 10” value was “about 3 log”. The “Concentration that inhibited growth of vegetative cells” value with C. difficile ATCC43255 (24 hours) was found to be 1 ×MIC. Moreover, in the data set with C. difficile ATCC43255 (24 hours, TcdA and TcdB by ELISA), the “Concentration that inhibited toxin production” value was determined as 1 ×MIC. Besides, in the data set on C. difficile ATCC43255 (48 hours), the “Concentration that inhibited spore production” value is “¼” and the “Concentration that inhibited toxin production” value is listed as 1 ×MIC. Further, in the data set with C. difficile ATCC43255 (72 hours), the “Concentration that inhibited spores” value came out at 1 ×MIC, the “Concentration that inhibited toxin production” value came to 1 ×MIC and the “Concentration that inhibited vegetative cells” value worked out at 1 ×MIC. In addition, in data set [3] (setting [9]), the Tolerability entry was “well tolerated” and the Weight loss result is reported as “did not result in weight loss”. Moreover, the Body weight in data set [3] (Day 1, 40 mg/kg/day po for 5 days, uninfected mice) is listed as 19.6 ± 0.6 g. In addition, in data set [3] (Day 2, 40 mg/kg/day po for 5 days, uninfected mice), the Body weight was 19.8 ± 0.6 g. In addition, the Body weight in data set [3] (Day 3, 40 mg/kg/day po for 5 days, uninfected mice) worked out at 19.8 ± 1.0 g. Also, the Body weight in data set [3] (Day 4, 40 mg/kg/day po for 5 days, uninfected mice) stood at 19.7 ± 1.0 g. The compound also had a Body weight in data set [3] (Day 5, 40 mg/kg/day po for 5 days, uninfected mice) of 19.4 ± 0.6 g. For the same compound, the “Oxadiazole 2 in Feces” value in data set [3] (Day 5, 40 mg/kg/day po for 5 days, uninfected mice, 40 mg/kg/day) is on record as 30.8 ± 11.1 μg/g feces. Further, in data set [3] (female, C57B1/6, mouse, feces, oral, 40 mg/kg), the concentration at 5 day turned out to be 30800 ng/mL. In data set [3] (setting [10]), the concentration at 1 day was found to be 9800 ± 400 ng/g, the concentration at 2 day was determined as 15000 ± 3700 ng/g, the concentration at 3 day was 18100 ± 2400 ng/g and the concentration at 4 day amounted to 16900 ± 1800 ng/g. This compound also returned a concentration at 5 day in data set [3] (setting [10]) of 30800 ± 11100 ng/g. In addition, the “Level in feces as multiple of MIC” value in data set [4] is on record as “approximately 20 ×MIC”. The “Clearance as share of hepatic blood flow” value in [5] (mice, 20 mg/kg iv) is on record as “approximately 20%”. Besides, the “Absolute oral bioavailability F” value in data set [5] (mice, 20 mg/kg po vs iv, 20 mg/kg) is reported as 4%. Further, the concentration at 24 h in data set [5] (mouse, feces, po, 20 mg/kg) came out at 43000 ± 3000 ng/g. In data set [5] (mouse, plasma, iv, 20 mg/kg), this compound had an AUC(0-inf) of 19200 ng·h/mL, a Vd of 1.8 L/kg, a clearance of 17.4 mL/min/kg and a half-life of 1.2 h. The compound further yielded a bioavailability in data set [5] (mouse, plasma, oral, 20 mg/kg, Absolute oral bioavailability F, mice, 20 mg/kg po vs iv) of 3.8%. In data set [5] (mouse, plasma, po, 20 mg/kg), this compound gave an AUC(0-inf) of 733 ng·h/mL, a Cmax of 300 ng/mL and a half-life of 1.1 h. Further, the “Survival after 25 days” value in data set [6] came to 70%. Further, the “Inhibition of peptidoglycan synthesis” value in data set [7] (N-acetyl-d-[6-3H]-glucosamine incorporation, ½ MIC, 120 min) came to 54.8±3.7%. The “Inhibition of DNA synthesis” value in [7] ([2,8-3H]adenine incorporation, in words) was “not significant”. For the same compound, the “Inhibition of protein synthesis” value in data set [7] (l-[3,4,5-3H(N)]-leucine incorporation, in words) is listed as “not significant”.
Regarding `CCc1c(Cl)c(O)c(Cl)c(O)c1C(=O)O[C@H]1[C@H](O)[C@H](OC)[C@H](OC/C2=C\C=C\C[C@H](O)/C(C)=C/[C@H](CC)[C@@H](O[C@@H]3OC(C)(C)[C@@H](OC(=O)C(C)C)[C@H](O)[C@@H]3O)/C(C)=C/C(C)=C/C[C@@H]([C@@H](C)O)OC2=O)O[C@@H]1C` [fidaxomicin], the “MIC range in 14 C. difficile strains” value in the data set on C. difficile is under 0.01 to 0.25 µg/mL. Moreover, the Treatment failure in the data set with C. difficile infection (CDI) was 12%. Besides, the “Patients with recurrence of the infection” value with C. difficile infection (patients treated for CDI) is on record as “About 25%”.

For orientation: AUC(0-inf) means the area under the concentration-time curve extrapolated to infinity. Higher therefore signals high exposure. Usually half-life stands for how long it takes for the measured level to halve. A word on the bioavailability: it is dose-corrected exposure relative to a reference, in per cent. By Cmax is commonly meant the maximum level reached in the sampled fluid or tissue.
